Measured values reported in US4374980A, “3'-Deamino-3'-morpholino carminomycin” (Zaidan Hojin Biseibutsu Kagaku Kenkyu Kai, priority 1981, dated 1983).
In brackets after ≈: the same amount, converted by molar mass.

Assays:
[1] = tested on: P-388 leukemia; conditions: vs P-388 leukemia in mice; reported in U.S. Pat. No. 4,301,277; cited from earlier work
[2] = tested on: leukemic cells L1210; test: Antitumor activity on CDF1 mouse leukemia induced by leukemic cells L1210; format: in vivo, CDF1 mice; conditions: 10 consecutive days
Method: (B) Antitumor activitiy on CDF1 mouse leukemia induced by leukemic cells L1210 of mice.
Leukemic cells L1210 of mice were intraperitoneally transplanted in an amount of 1×10^5 per mouse in CDF1 mice. Starting 24 hours after the transplantation, 3'-deamino-3'-morpholino-carminomycin was intraperitoneally or orally administered to the mice for 10 consecutive days. The survival rate (T/C, %) was calculated in comparison with a control group (to which physiological saline was administered).

[3] = tested on: leukemic cells L1210; test: Inhibition of growth of cultivated leukemic cells L1210 of mice; format: cell-based; conditions: for IC50: Mus musculus, growth, RPMI 1640, 20% calf serum, 37° C.
Method: (§1) (A) Activity of inhibiting growth, DNA synthesis and RNA synthesis of cultivated leukemic cells L1210 of mice.
For example, L1210 cells were inoculated in a concentration of 5×10^4 /ml in an RPMI 1640 culture medium containing 20% calf serum (Rosewell Memorial Park Institute 1640), and simultaneously 3'-deamino-3'-morpholino-carminomycin was added in various concentrations. Thus, the cells were cultivated in an incubator containing carbon dioxide gas at 37° C. The 50% growth inhibitory concentration with respect to a control group was determined.

[4] = Acute toxicity by oral administration on CDF1 mouse; conditions: in vivo
Source text: (C) Acute toxicity by oral administration on CDF1 mouse.

[5] = tested on: Corynebacterium bovis 1810; test: Minimum inhibitory concentration by broth dilution method; format: cell-based
Source text: (§2) To illustrate such activity, minimum inhibitory concentrations (as determined by the broth dilution method) of the compound against several bacteria are shown in the Table below.

[6] = tested on: Staph. aureus FDA 209P; test: as above; format: cell-based; conditions: Staphylococcus aureus, FDA209P
Source text: as §2

[7] = tested on: Sarcina lutea PCI 1001; test: as above; format: cell-based; conditions: Micrococcus luteus, PCI1001
Source text: as §2

[8] = tested on: Micrococcus flavus FDA 16; test: as above; format: cell-based; conditions: FDA16
Source text: as §2

[9] = tested on: Bacillus subtilis NRRL B-558; test: as above; format: cell-based; conditions: NRRLB558
Source text: as §2

[10] = tested on: Bacillus cereus ATCC 10702; test: as above; format: cell-based; conditions: ATCC10702
Source text: as §2

[11] = tested on: Pseudomonas aeruginosa A3; test: as above; format: cell-based
Source text: as §2

[12] = tested on: Staph. aureus Smith; test: as above; format: cell-based; conditions: Staphylococcus aureus
Source text: as §2

[13] = tested on: leukemic cells L1210; test: Inhibition of DNA synthesis (14C-thymidine incorporation) in cultivated leukemic cells L1210 of mice; format: cell-based; conditions: Mus musculus, L1210, 1 h, 60 minutes, 37° C., RPMI 1640, 10% calf serum
Method: as §1
(§3) Separately, the above cultivated cells L1210 were suspended in a concentration of 1×10^5 /ml in an RPMI 1640 medium containing 10% of calf serum, and cultivated for 1 to 2 hours in an incubator containing carbon dioxide gas at 37° C. Then, 3'-deamino-3'-morpholino-carminomycin was added in various concentrations,and 15 minutes later, ^14 C-uridine (0.05 μCi/ml) and ^14 C-thymidine (0.05 μCi/ml) were added. Thus, the cells were cultivated at 37° C. for 60 minutes. A 10% aqueous solution of trichloroacetic acid was added to the reaction liquor to stop the reaction and simultaneously precipitate an acid-insoluble matter. The acid-insoluble matter was washed three times with a 10-5% aqueous solution of trichloroacetic acid, and then dissolved in formic acid. The radioactivity of the acid-insoluble matter was measured. From the ratio of incorporated radiation to that of a control group, the concentrations which inhibited radiation by 50% were measured.

[14] = tested on: leukemic cells L1210; test: Inhibition of RNA synthesis (14C-uridine incorporation) in cultivated leukemic cells L1210 of mice; format: cell-based; conditions: Mus musculus, L1210, 1 h, 60 minutes, 37° C., RPMI 1640, 10% calf serum
Method: as §1, §3

For `COc1cccc2c1C(=O)c1c(O)c3c(c(O)c1C2=O)C[C@@](O)(C(C)=O)C[C@@H]3O[C@H]1C[C@H](N2CCOCC2)[C@H](O)[C@H](C)O1` [3'-deamino-3'-morpholino-daunomycin, 3'-Deamino-3'-morpholinodaunomycin], the “antitumor potency relative to adriamycin and daunomycin starting materials” value [1] is given as “significantly greater antitumor potency”.

For `CC(=O)[C@]1(O)Cc2c(O)c3c(c(O)c2[C@@H](O[C@H]2C[C@H](N4CCOCC4)[C@H](O)[C@H](C)O2)C1)C(=O)c1c(O)cccc1C3=O` [3'-Deamino-3'-morpholino-carminomycin], the “T/C % of the survival period” value ([2]; i.p., 0.39 μg/mouse/day) was 94%, the “T/C % of the survival period” value ([2]; i.p., 0.78 μg/mouse/day) was 122% and the “T/C % of the survival period” value ([2]; i.p., 1.56 μg/mouse/day) was 94%. For the same compound, the “T/C % of the survival period” value ([2]; i.p., 3.125 μg/mouse/day) was 122%, the “T/C % of the survival period” value ([2]; i.p., 6.25 μg/mouse/day) was 122% and the “T/C % of the survival period” value ([2]; i.p., 12.5 μg/mouse/day) was 194%. For the same compound, the “toxicity (footnote *)” value ([2]; i.p., 12.5 μg/mouse/day) was “Toxic”, the “T/C % of the survival period” value ([2]; p.o., 0.39 μg/mouse/day) was 100% and the “T/C % of the survival period” value ([2]; p.o., 0.78 μg/mouse/day) was 111%. For the same compound, the “T/C % of the survival period” value ([2]; p.o., 1.56 μg/mouse/day) was 106%, the “T/C % of the survival period” value ([2]; p.o., 3.125 μg/mouse/day) was 133% and the “T/C % of the survival period” value ([2]; p.o., 6.25 μg/mouse/day) was 167%. For the same compound, the “T/C % of the survival period” value ([2]; p.o., 12.5 μg/mouse/day) was 206%, the IC50 ([3]; L1210, 24 h, 1 day, read-out: IC50 growth, 1 day after) was 0.01 µg/mL (≈ 0.0171 µM) and the IC50 ([3]; L1210, 48 h, 2 days, read-out: IC50 growth, 2 days after) was 0.0009 µg/mL (≈ 0.00154 µM). The “inhibition of growth and nucleic acid synthesis (in words)” value ([3]; cultivated L1210 cells of mice) was “markedly inhibit the growth and nucleic acid synthesis”, the LD50 [4] was 1.56 mg/kg and the MIC [5] was 0.39 µg/mL (≈ 0.668 µM). The MIC [6] was 0.78 µg/mL (≈ 1.34 µM), the MIC [7] was 0.78 µg/mL (≈ 1.34 µM) and the MIC [8] was 1.56 µg/mL (≈ 2.67 µM). The MIC [9] was 1.56 µg/mL (≈ 2.67 µM), the MIC [10] was 0.78 µg/mL (≈ 1.34 µM) and the MIC [11] was > 100 µg/mL. For the same compound, the MIC [12] was 6.25 µg/mL (≈ 10.7 µM), the IC50 [13] was 0.09 µg/mL (≈ 0.154 µM) and the IC50 [14] was 0.013 µg/mL (≈ 0.0223 µM).

For `COc1cccc2c1C(=O)c1c(O)c3c(c(O)c1C2=O)C[C@@](O)(C(=O)CO)C[C@@H]3O[C@H]1C[C@H](N2CCOCC2)[C@H](O)[C@H](C)O1` [3'-deamino-3'-morpholino-adriamycin, 3'-Deamino-3'-morpholino-adriamycin], the “antitumor potency relative to adriamycin and daunomycin starting materials” value [1] is listed as “significantly greater antitumor potency”.
